One assay addresses T1, HDAC6 recombinant enzyme (Homo sapiens, UniProt Q9UBN7).
T1 sequence (Q9UBN7 1-1215): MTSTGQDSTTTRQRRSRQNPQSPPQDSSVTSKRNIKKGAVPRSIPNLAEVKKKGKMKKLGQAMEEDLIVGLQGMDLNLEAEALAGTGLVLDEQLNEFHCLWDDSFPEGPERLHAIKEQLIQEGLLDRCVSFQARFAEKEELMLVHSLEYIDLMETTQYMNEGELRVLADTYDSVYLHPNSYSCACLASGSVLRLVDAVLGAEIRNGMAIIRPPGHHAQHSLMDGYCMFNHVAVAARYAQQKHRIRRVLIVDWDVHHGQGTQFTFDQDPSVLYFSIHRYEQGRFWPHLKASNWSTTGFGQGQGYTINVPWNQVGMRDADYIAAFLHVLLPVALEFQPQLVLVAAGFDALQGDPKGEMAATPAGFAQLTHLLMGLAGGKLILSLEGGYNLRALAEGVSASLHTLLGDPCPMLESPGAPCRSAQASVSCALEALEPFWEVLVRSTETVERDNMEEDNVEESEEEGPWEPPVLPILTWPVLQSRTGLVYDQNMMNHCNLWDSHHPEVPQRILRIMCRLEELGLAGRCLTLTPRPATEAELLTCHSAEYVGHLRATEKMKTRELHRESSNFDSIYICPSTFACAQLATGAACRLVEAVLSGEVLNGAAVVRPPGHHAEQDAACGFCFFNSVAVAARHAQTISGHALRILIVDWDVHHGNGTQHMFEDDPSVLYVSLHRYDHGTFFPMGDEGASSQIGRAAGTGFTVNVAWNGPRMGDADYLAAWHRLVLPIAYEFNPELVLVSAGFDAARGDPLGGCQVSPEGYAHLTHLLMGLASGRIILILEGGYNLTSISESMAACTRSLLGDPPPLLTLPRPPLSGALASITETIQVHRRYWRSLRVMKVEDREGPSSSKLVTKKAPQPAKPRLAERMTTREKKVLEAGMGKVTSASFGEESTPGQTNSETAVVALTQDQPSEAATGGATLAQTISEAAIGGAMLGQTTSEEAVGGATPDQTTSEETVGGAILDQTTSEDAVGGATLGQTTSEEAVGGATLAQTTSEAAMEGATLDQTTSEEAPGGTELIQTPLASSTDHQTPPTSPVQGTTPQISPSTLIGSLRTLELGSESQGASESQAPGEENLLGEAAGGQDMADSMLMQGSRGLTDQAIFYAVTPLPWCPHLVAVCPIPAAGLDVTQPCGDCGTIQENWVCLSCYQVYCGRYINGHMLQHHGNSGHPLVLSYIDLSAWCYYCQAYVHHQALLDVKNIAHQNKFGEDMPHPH
Description: Fluorimetric HDAC6 assay. It is filed as biochemical. The following applies: singlicate. The procedure: In vitro assessments of compounds on the HDAC6 enzyme were performed, as described in our previous works. […] The blank employed for curve fitting was evaluated on a solution of the buffer containing a concentration of […] of DMSO. IC50 values were calculated by using the GraphPad Prism 4 program based on a sigmoidal dose–response equation.

For assay [1], the system named is PC-3 prostate cancer cells. Kind of assay: Cell viability assay (MTT) on PC-3 cells. The assay is classed as cell-based, human. The following applies: 72 h treatment, MTT, mean of three independent experiments ± SEM, read-out: PC-3 GI50. Here is the method:
The human prostate cancer cell line PC-3 (ATCC Cat# CRL-1435) was grown in Ham’s F12 (Biowest, Nuaillé, France) medium, while the human prostate cancer cell line LNCaP (ATCC Cat# CRL-1740) was grown in RPMI 1640 (Biowest, Nuaillé, France) medium. Both media were supplemented with 10% Fetal Bovine Serum (FBS, Gibco, Fisher Scientific Italia, Segrate, Italy), 2 mM glutamine, 100 U/mL penicillin, and 100 μg/mL streptomycin. PC-3 and LNCaP cells were maintained at 37 °C in a humidified 5% CO2 atmosphere.
PC-3 and LNCaP cells were seeded at a density of 4000 and 6000 cells/well into a 96-well plate, respectively, together with a calibration curve of known cell numbers. The following day, the cells were treated with the indicated test compounds at different concentrations starting at 75μM with 2-fold serial dilutions. Cell viability was evaluated after 72h by colorimetric MTT (PC-3) or PrestoBlue™ (LNCaP) cell viability reagents. A total of 0.5 mg/mL of thiazolyl blue tetrazolium bromide (MTT) (Sigma-Aldrich, St. Louis, MO, USA) in Ham’s F12 medium was added to the wells, and the plate was incubated at 37 °C for 2 h. Medium containing unconverted MTT was removed, and 100 μL of MTT solvent (4 mM HCl, 0.1% NP40, in isopropyl alcohol) was added to the wells in order to solubilize MTT crystals. After 15 min of incubation at room temperature, the absorbance values at 570 nm were obtained with a Multiskan FC Microplate Photometer (Thermo Fisher Scientific, Waltham, MA, USA). PrestoBlue reagent (#A13261, Thermo Fisher Scientific, Waltham, MA, USA) was added to the medium (1:10 v/v) and incubated for 1 h at 37 °C. Cell viability was calculated by quantifying PrestoBlue reduction by measuring the absorbance at 570 and 620 nm, according to the manufacturer’s protocol. The viability of untreated cells was arbitrarily set at 100%, and the concentration at which cellular growth is inhibited by 50% (GI50) was determined. Three independent experiments were performed.

Drawing on article PMC11357446, “Searching for Novel HDAC6/Hsp90 Dual Inhibitors with Anti-Prostate Cancer Activity: In Silico Screening and In Vitro Evaluation” (Pharmaceuticals, 2024), this text covers IC50 and GI50 for three compounds.

Read-outs that look alike come from different tables or passages of the source.

As for `CC(C)[C@H](C(=O)NCc1ccc(C(=O)NO)cc1)N1Cc2ccccc2C1=O` [Compound 11], at HDAC6 recombinant enzyme, the 50% inhibitory concentration (IC50) was found to be 0.005 µM. The GI50 in assay [1] (Homo sapiens, PC-3, 72 h) was 13.9 ± 2.9 µM.

As for `O=C(c1cc(OCc2ccccc2)ccc1O)N1CCC(c2noc(C(F)(F)F)n2)CC1` [Compound 8], the IC50 at HDAC6 recombinant enzyme was found to be 6.5 µM. In addition, the 50% growth inhibitory concentration (GI50) in assay [1] is 51.8 ± 0.6 µM; in assay [1] (Homo sapiens, PC-3, 72 h), roughly 50 µM.

Regarding `O=C(Nc1ncccc1O)c1ccc(-c2noc(C(F)(F)F)n2)cc1` [Compound 18], the half-inhibitory concentration (IC50) on HDAC6 recombinant enzyme amounted to 2.7 µM. Also, in assay [1] (Homo sapiens, PC-3, 72 h), the GI50 came to 21 ± 5.4 µM.
